Results as given in ChEMBL document CHEMBL3593163, “Synthesis and Characterization of 5-Hydroxy-2-(2-phenylethyl)chromone (5-HPEC) and Its Analogues as Non-nitrogenous 5-HT2B Ligands” (J Nat Prod, 2015).

What was measured:
[1] = biological target: 5-hydroxytryptamine receptor 2A (Homo sapiens) (UniProt P28223); assay: Displacement of [3H]ketanserin from human 5HT2A receptor expressed in HEKT cells membranes at 10 uM; format: cell membranes
[2] = biological target: T1, 5-hydroxytryptamine receptor 2C (Homo sapiens) (UniProt P28335); assay: Displacement of [3H]mesulergine from human 5HT2C receptor expressed in Flp-IN HEK cell membranes at 10 uM; details: HEK293
T1 sequence (whole entry): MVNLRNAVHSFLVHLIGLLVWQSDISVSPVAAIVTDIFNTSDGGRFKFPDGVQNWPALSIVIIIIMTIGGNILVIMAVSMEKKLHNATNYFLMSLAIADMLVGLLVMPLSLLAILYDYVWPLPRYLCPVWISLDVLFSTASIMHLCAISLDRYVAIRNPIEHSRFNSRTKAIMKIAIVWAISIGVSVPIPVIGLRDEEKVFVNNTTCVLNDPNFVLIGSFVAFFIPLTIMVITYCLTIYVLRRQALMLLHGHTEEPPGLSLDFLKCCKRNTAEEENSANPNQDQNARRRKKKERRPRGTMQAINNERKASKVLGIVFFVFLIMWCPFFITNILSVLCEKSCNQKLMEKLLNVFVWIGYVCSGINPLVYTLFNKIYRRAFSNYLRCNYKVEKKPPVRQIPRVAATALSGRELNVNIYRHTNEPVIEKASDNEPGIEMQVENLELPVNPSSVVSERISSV

[3] = biological target: 5-hydroxytryptamine receptor 2B (Homo sapiens) (UniProt P41595); assay: Displacement of [3H]LSD from human 5HT2B receptor expressed in stable HEK cells membranes at 10 uM; format: cell membranes; details: HEK293
Chain of 5-hydroxytryptamine receptor 2B (Homo sapiens) (P41595 whole entry): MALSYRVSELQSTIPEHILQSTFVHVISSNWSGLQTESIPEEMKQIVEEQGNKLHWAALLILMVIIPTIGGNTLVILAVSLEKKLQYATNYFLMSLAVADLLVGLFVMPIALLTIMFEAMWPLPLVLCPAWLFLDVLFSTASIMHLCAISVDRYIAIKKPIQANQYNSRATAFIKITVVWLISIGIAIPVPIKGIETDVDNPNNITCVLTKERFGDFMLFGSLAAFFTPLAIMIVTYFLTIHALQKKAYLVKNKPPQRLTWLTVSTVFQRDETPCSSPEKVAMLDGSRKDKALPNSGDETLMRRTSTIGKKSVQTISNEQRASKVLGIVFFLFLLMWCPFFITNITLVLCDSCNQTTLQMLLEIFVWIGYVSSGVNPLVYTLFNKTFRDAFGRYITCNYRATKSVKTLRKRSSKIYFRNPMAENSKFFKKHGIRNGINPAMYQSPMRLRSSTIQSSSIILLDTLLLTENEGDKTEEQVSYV

[4] = biological target: 5-hydroxytryptamine receptor 2B (Homo sapiens) (UniProt P41595); assay: Agonist activity at human 5HT2B receptor expressed in Flp-IN HEK cells at 10 um by calcium mobilization assay relative to 5-HT; format: functional, cell-based; details: HEK293
[5] = biological target: 5-hydroxytryptamine receptor 2B (Homo sapiens) (UniProt P41595); assay: Potency index, ratio of pKi for 5-HPEC to pKi for test compound against human 5HT2B receptor expressed in stable HEK cells membranes; format: cell-based; details: HEK293
[6] = biological target: 5-hydroxytryptamine receptor 2B (Homo sapiens) (UniProt P41595); assay: Antagonist activity against human 5HT2B receptor expressed in Flp-IN HEK cells assessed as inhibition of 5-HT-induced response at 10 uM by calcium mobilization assay; format: functional, cell-based; details: HEK293

Chain of 5-hydroxytryptamine receptor 2A (Homo sapiens) (P28223 whole entry): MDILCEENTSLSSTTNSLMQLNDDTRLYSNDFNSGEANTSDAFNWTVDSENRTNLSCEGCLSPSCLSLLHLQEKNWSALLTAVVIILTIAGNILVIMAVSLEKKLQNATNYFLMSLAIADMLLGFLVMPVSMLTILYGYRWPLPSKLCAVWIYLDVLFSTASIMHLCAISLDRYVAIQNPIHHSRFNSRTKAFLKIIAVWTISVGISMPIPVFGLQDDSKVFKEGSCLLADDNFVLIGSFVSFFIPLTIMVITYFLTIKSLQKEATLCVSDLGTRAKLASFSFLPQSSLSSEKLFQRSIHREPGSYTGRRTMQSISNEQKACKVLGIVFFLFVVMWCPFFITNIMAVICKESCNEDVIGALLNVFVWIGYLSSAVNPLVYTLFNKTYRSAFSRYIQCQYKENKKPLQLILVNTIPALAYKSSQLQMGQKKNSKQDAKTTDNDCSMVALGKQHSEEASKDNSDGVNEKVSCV

Row | Structure (SMILES) | inhibition [1] [%] | inhibition [2] [%] | inhibition [3] [%] | Efficacy [4] [%] | Ratio [5] | inhibition [6] [%]
1 | O=c1cc(COCc2ccccc2)oc2cccc(O)c12 | 3.2 | 42.1 | 77.7 |  |  | 
2 | O=c1cc(CCc2ccccc2O)oc2cccc(O)c12 | 24.3 | 23.8 | 12.8 |  |  | 
3 | O=c1cc(CCc2ccco2)oc2cccc(O)c12 | 12.4 | 24.2 | 68.8 |  |  | 
4 | O=c1cc(CCCc2ccccc2)oc2cccc(O)c12 |  |  |  | 0.23 | 10 | 20.5
5 | O=c1cc(CCc2cccc(O)c2)oc2cccc(O)c12 | 39 | 30.4 | 76.3 |  |  | 
6 | O=c1cc(COc2ccccc2)oc2cccc(O)c12 |  | 7 |  |  |  | 

Second part, the compound after the results:

Row | inhibition [1] [%] | inhibition [2] [%] | inhibition [3] [%] | Efficacy [4] [%] | Ratio [5] | inhibition [6] [%] | Structure (SMILES)
7 | 47.9 | 44 | 16.6 |  |  |  | O=c1cc(CCc2ccccc2O)oc2cc(O)ccc12
8 | 35.5 | 33.7 | 34.2 |  |  |  | O=c1cc(CCc2ccccc2)oc2cc(O)ccc12
9 | 33.3 | 53.1 | 40.8 |  |  |  | O=c1cc(CCc2ccc(O)cc2)oc2cc(O)ccc12
10 | 23.2 | 0 | 25.3 |  |  |  | O=c1cc(CCc2cccc(O)c2)oc2cc(O)ccc12
